Test results published in ChEMBL document CHEMBL5537125, “Discovery of C-3 isoxazole substituted thiochromone S,S-dioxide derivatives as potent and selective inhibitors for monoamine oxidase B (MAO-B)” (Eur J Med Chem, 2024).
The source made the active and inactive calls. No cut-off for these calls is given here.

Molecular target: T1, Amine oxidase [flavin-containing] B (Homo sapiens, UniProt P27338)
T1 sequence (P27338 whole entry): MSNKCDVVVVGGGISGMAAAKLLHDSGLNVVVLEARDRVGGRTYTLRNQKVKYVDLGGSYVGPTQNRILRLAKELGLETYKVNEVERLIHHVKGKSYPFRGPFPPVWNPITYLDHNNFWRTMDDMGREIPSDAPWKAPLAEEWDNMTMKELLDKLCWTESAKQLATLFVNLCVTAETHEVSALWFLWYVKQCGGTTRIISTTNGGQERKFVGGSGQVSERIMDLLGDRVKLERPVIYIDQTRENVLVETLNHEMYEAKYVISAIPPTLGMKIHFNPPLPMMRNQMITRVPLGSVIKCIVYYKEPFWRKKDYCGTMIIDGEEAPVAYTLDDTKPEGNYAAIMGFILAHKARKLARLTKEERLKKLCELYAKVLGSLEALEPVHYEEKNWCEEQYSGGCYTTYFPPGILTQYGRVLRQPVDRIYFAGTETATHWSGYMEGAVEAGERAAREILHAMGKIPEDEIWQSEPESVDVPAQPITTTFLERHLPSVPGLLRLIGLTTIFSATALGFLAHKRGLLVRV
Assay: Inhibition of human recombinant MAO-B using tyramine as substrate incubated for 20 mins by fluorometric assay
Conditions: not given

| Compound | IC50 |
| --- | --- |
| O=c1c(-c2cc(-c3ccccc3C(F)(F)F)no2)csc2ccccc12 | 0.002 µM |
| O=C1C(c2cc(-c3ccc(Cl)cc3)no2)=CS(=O)(=O)c2ccccc21 | 0.0034 µM |
| Cc1ccc(-c2cc(C3=CS(=O)(=O)c4ccccc4C3=O)on2)cc1 | 0.0268 µM |
| O=C1C(c2cc(-c3cccc(C(F)(F)F)c3)no2)=CS(=O)(=O)c2ccccc21 | 0.0019 µM |
| O=C1C(c2cc(-c3cccc(Cl)c3)no2)=CS(=O)(=O)c2ccccc21 | 0.0226 µM |
| COc1cccc(-c2cc(C3=CS(=O)(=O)c4ccccc4C3=O)on2)c1 | 0.0051 µM |
| Cc1ccccc1-c1cc(-c2csc3ccccc3c2=O)on1 | 0.109 µM |
| O=C1C(c2cc(-c3cccc(F)c3)no2)=CS(=O)(=O)c2ccccc21 | 0.44 µM |

Molecular target: T2, Amine oxidase [flavin-containing] A (Homo sapiens, UniProt P21397)
T2 sequence (P21397 whole entry): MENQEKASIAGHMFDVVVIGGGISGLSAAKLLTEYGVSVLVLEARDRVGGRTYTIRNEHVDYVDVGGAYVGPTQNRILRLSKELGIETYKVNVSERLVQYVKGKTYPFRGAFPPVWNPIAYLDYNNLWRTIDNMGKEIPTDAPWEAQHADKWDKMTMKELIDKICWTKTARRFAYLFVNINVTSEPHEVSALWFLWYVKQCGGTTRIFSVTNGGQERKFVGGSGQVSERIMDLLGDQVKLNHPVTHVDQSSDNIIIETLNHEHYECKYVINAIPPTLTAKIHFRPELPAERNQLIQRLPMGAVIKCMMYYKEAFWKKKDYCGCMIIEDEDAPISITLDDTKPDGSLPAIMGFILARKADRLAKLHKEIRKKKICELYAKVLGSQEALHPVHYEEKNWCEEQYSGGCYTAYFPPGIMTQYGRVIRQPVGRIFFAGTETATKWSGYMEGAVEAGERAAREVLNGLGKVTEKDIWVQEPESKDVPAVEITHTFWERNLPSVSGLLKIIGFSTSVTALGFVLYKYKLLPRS
Assay: Inhibition of human recombinant MAO-A using tyramine as substrate incubated for 20 mins by fluorometric assay
Conditions: not given

| Compound | IC50 |
| --- | --- |
| O=c1c(-c2cc(-c3ccccc3C(F)(F)F)no2)csc2ccccc12 | 21.2 µM |
| O=C1C(c2cc(-c3ccc(Cl)cc3)no2)=CS(=O)(=O)c2ccccc21 | 38.3 µM |

Species: Homo sapiens
Assay: Selectivity index, ratio of IC50 for human recombinant MAO-A to IC50 for human recombinant MAO-B
Conditions: not given

| Compound | Ratio IC50 |
| --- | --- |
| Cc1ccc(C2=NOC(c3ccc(Cl)c(Cl)c3)C2)cc1 (stereo not given) | > 8350 |

System: not listed separately
Assay: n-Octanol/water partition coefficient, logP of the compound at pH 7.4 by HPLC analysis
Type: physicochemical
Conditions: not given

| Compound | logD |
| --- | --- |
| O=c1c(-c2cc(-c3ccccc3C(F)(F)F)no2)csc2ccccc12 | 4.37 |
| O=C1C(c2cc(-c3ccc(Cl)cc3)no2)=CS(=O)(=O)c2ccccc21 | 1.82 |
| Cc1ccc(-c2cc(C3=CS(=O)(=O)c4ccccc4C3=O)on2)cc1 | 2.77 |
| O=C1C(c2cc(-c3cccc(C(F)(F)F)c3)no2)=CS(=O)(=O)c2ccccc21 | 3.39 |
| O=C1C(c2cc(-c3cccc(Cl)c3)no2)=CS(=O)(=O)c2ccccc21 | 4.17 |
| COc1cccc(-c2cc(C3=CS(=O)(=O)c4ccccc4C3=O)on2)c1 | 2.39 |
| Cc1ccccc1-c1cc(-c2csc3ccccc3c2=O)on1 | 3.99 |
| O=C1C(c2cc(-c3cccc(F)c3)no2)=CS(=O)(=O)c2ccccc21 | 2.46 |

Molecular target: T2, Amine oxidase [flavin-containing] A
Assay: Inhibition of human recombinant MAO-A using tyramine as substrate at 10 uM incubated for 20 mins by fluorometric assay relative to control
Conditions: not given

| Compound | inhibition at 10 µM |
| --- | --- |
| O=C1C(c2cc(-c3cccc(C(F)(F)F)c3)no2)=CS(=O)(=O)c2ccccc21 | 10% |
| COc1cccc(-c2cc(C3=CS(=O)(=O)c4ccccc4C3=O)on2)c1 | 1% |

System: MCF7
Assay: Antiproliferative activity against human MCF7 cells assessed as reduction in cell viability incubated for 24 hrs by MTT assay
Type: functional, cell-based
Conditions: MCF7, 24 h

| Compound | IC50 |
| --- | --- |
| O=c1c(-c2cc(-c3ccccc3C(F)(F)F)no2)csc2ccccc12 | 37.9 µM |
| O=C1C(c2cc(-c3ccc(Cl)cc3)no2)=CS(=O)(=O)c2ccccc21 | 3.77 µM |
| O=C1C(c2cc(-c3cccc(C(F)(F)F)c3)no2)=CS(=O)(=O)c2ccccc21 | 5.82 µM |
| COc1cccc(-c2cc(C3=CS(=O)(=O)c4ccccc4C3=O)on2)c1 | 4.21 µM |

System: HCT-116
Assay: Antiproliferative activity against human HCT-116 cells assessed as reduction in cell viability incubated for 24 hrs by MTT assay
Type: functional, cell-based
Conditions: HCT-116, 24 h

| Compound | IC50 |
| --- | --- |
| O=C1C(c2cc(-c3ccc(Cl)cc3)no2)=CS(=O)(=O)c2ccccc21 | 53.4 µM |
| O=C1C(c2cc(-c3cccc(C(F)(F)F)c3)no2)=CS(=O)(=O)c2ccccc21 | 21.4 µM |
| COc1cccc(-c2cc(C3=CS(=O)(=O)c4ccccc4C3=O)on2)c1 | 47 µM |

System: HepG2
Assay: Antiproliferative activity against human HepG2 cells assessed as reduction in cell viability incubated for 24 hrs by MTT assay
Type: functional, cell-based
Conditions: HepG2, 24 h

| Compound | IC50 |
| --- | --- |
| O=C1C(c2cc(-c3ccc(Cl)cc3)no2)=CS(=O)(=O)c2ccccc21 | 55.9 µM |
| O=C1C(c2cc(-c3cccc(C(F)(F)F)c3)no2)=CS(=O)(=O)c2ccccc21 | 83.2 µM |
| COc1cccc(-c2cc(C3=CS(=O)(=O)c4ccccc4C3=O)on2)c1 | 43.3 µM |

System: MGC-803
Assay: Antiproliferative activity against human MGC-803 cells assessed as reduction in cell viability incubated for 24 hrs by MTT assay
Type: functional, cell-based
Conditions: MGC-803, 24 h

| Compound | IC50 |
| --- | --- |
| O=C1C(c2cc(-c3cccc(C(F)(F)F)c3)no2)=CS(=O)(=O)c2ccccc21 | 39.6 µM |
| COc1cccc(-c2cc(C3=CS(=O)(=O)c4ccccc4C3=O)on2)c1 | 43 µM |

System: SH-SY5Y
Assay: Cytotoxicity against differentiated human SH-SY5Y cells assessed as reduction in cell viability by measuring MTT reduction at 4 uM incubated for 24 hrs by MTT assay relative to control
Type: toxicity, cell-based
Conditions: not given

| Compound | Activity |
| --- | --- |
| O=c1c(-c2cc(-c3ccccc3C(F)(F)F)no2)csc2ccccc12 | < 90% |
| O=C1C(c2cc(-c3ccc(Cl)cc3)no2)=CS(=O)(=O)c2ccccc21 | < 90% |
| O=C1C(c2cc(-c3cccc(C(F)(F)F)c3)no2)=CS(=O)(=O)c2ccccc21 | < 90% |

System: SH-SY5Y
Assay: Induction of ROS production in human SH-SY5Y cells assessed as increase in oxidative damage at 2 to 4 uM incubated for 24 hrs by DCFH-DA staining based fluorescence microscopic analysis
Type: functional, cell-based
Conditions: dose 2-4 µM

| Compound | Activity |
| --- | --- |
| O=C1C(c2cc(-c3cccc(C(F)(F)F)c3)no2)=CS(=O)(=O)c2ccccc21 | inactive |
| COc1cccc(-c2cc(C3=CS(=O)(=O)c4ccccc4C3=O)on2)c1 | inactive |

System: VSMC
Assay: Cytotoxicity against human VSMC cells assessed as reduction in cell viability at 0.5 uM incubated for 24 hrs by MTT assay relative to control
Type: toxicity, cell-based
Conditions: not given

| Compound | Activity |
| --- | --- |
| O=C1C(c2cc(-c3cccc(C(F)(F)F)c3)no2)=CS(=O)(=O)c2ccccc21 | 113% |
| COc1cccc(-c2cc(C3=CS(=O)(=O)c4ccccc4C3=O)on2)c1 | 111% |

System: VSMC
Assay: Cytotoxicity against differentiated human VSMC cells assessed as reduction in cell viability at 0.5 to 4 uM incubated for 24 hrs by MTT assay
Type: toxicity, cell-based
Conditions: dose 0.5-4 µM

| Compound | Activity |
| --- | --- |
| O=c1c(-c2cc(-c3ccccc3C(F)(F)F)no2)csc2ccccc12 | Non-Toxic |
| O=C1C(c2cc(-c3ccc(Cl)cc3)no2)=CS(=O)(=O)c2ccccc21 | Non-Toxic |
| O=C1C(c2cc(-c3cccc(C(F)(F)F)c3)no2)=CS(=O)(=O)c2ccccc21 | Non-Toxic |
| COc1cccc(-c2cc(C3=CS(=O)(=O)c4ccccc4C3=O)on2)c1 | Non-Toxic |

System: not listed separately
Assay: Solubility of compound in DMSO
Type: physicochemical
Conditions: not given

| Compound | solubility |
| --- | --- |
| O=c1c(-c2cc(-c3ccc(F)cc3)no2)csc2ccccc12 | Insoluble |
| COc1ccc(-c2cc(-c3csc4ccccc4c3=O)on2)cc1 | Insoluble |
| O=c1c(-c2cc(-c3cccc(F)c3)no2)csc2ccccc12 | Insoluble |
| O=c1c(-c2cc(-c3cccc(Cl)c3)no2)csc2ccccc12 | Insoluble |
| O=c1c(-c2cc(-c3ccc(Cl)cc3)no2)csc2ccccc12 | Insoluble |
| COc1cccc(-c2cc(-c3csc4ccccc4c3=O)on2)c1 | Insoluble |

System: not listed separately
Assay: Solubility of compound in phosphate buffer
Type: physicochemical
Conditions: not given

| Compound | solubility |
| --- | --- |
| O=c1c(-c2cc(-c3ccc(F)cc3)no2)csc2ccccc12 | Insoluble |
| COc1ccc(-c2cc(-c3csc4ccccc4c3=O)on2)cc1 | Insoluble |
| O=c1c(-c2cc(-c3cccc(F)c3)no2)csc2ccccc12 | Insoluble |
| O=c1c(-c2cc(-c3cccc(Cl)c3)no2)csc2ccccc12 | Insoluble |
| O=c1c(-c2cc(-c3ccc(Cl)cc3)no2)csc2ccccc12 | Insoluble |
| COc1cccc(-c2cc(-c3csc4ccccc4c3=O)on2)c1 | Insoluble |

System: HepG2
Assay: Antiproliferative activity against human HepG2 cells assessed as reduction in cell viability at 0.5 to 128 uM incubated for 24 hrs by MTT assay
Type: functional, cell-based
Conditions: dose 0.5-128 µM

| Compound | Activity |
| --- | --- |
| O=c1c(-c2cc(-c3ccccc3C(F)(F)F)no2)csc2ccccc12 | inactive |

System: MGC-803
Assay: Antiproliferative activity against human MGC-803 cells assessed as reduction in cell viability at 0.5 to 128 uM incubated for 24 hrs by MTT assay
Type: functional, cell-based
Conditions: dose 0.5-128 µM

| Compound | Activity |
| --- | --- |
| O=c1c(-c2cc(-c3ccccc3C(F)(F)F)no2)csc2ccccc12 | inactive |
| O=C1C(c2cc(-c3ccc(Cl)cc3)no2)=CS(=O)(=O)c2ccccc21 | inactive |

System: not listed separately
Assay: Cytotoxicity against differentiated human SH-SY5Y cells assessed as cell proliferation at 4 uM incubated for 24 hrs by MTT assay relative to control
Type: toxicity, cell-based
Conditions: read-out: Activity

| Compound | viability at 24 h, 4 µM |
| --- | --- |
| O=c1c(-c2cc(-c3ccccc3C(F)(F)F)no2)csc2ccccc12 | 121% |
